Source: ChEMBL document CHEMBL4483862, “Open-source discovery of chemical leads for next-generation chemoprotective antimalarials” (2018)

Tested on: Plasmodium berghei
Assay: Luciferase/luciferin-expressing antifolate-resistant parasites were used to infect a culture of HepG2 cells that were pre-incubated with compounds. Infected hepatocytes emit light due to the luciferase reaction. Assay results are presented as the percent inhibition of light emission compared to control. […]
Type: functional
Settings: sporozoite; for IC90: read-out: LUCIFERASE INFECTION ASSAY - IC90
[1] = read-out: LUCIFERASE INFECTION ASSAY - IC50

Work on `COc1ccc(-c2cnc3ccc(NCc4ccc(C)cc4C)nn23)cn1` yielded an IC50 (HEPG2TOX_HILL_SLOPE 9.76, HEPG2TOX_R_SQUARED 0.857, PBLUC_HILL_SLOPE 10.1, PBLUC_R_SQUARED 0.466, read-out: LUCIFERASE INFECTION ASSAY - IC50) of 7.25 µM and an IC90 of 9.01 µM.
For `N#Cc1nn(-c2cccc(Cl)c2)c(=O)cc1Cl`, the IC50 (FFLUC_HILL_SLOPE 0.646, FFLUC_R_SQUARED 0.469, HEPG2TOX_HILL_SLOPE 5.31, HEPG2TOX_R_SQUARED 0.933, PBLUC_HILL_SLOPE 9.19, PBLUC_R_SQUARED 0.334, read-out: LUCIFERASE INFECTION ASSAY - IC50) was 9.36 µM and the IC90 was 11.9 µM.
Work on `COc1c(Cl)cc(Br)c(OC)c1C(=O)NC(=O)Nc1cc(C(F)(F)F)cc(C(F)(F)F)c1` yielded an IC50 (FFLUC_HILL_SLOPE 14.8, FFLUC_R_SQUARED 0.569, HEPG2TOX_HILL_SLOPE 7.93, HEPG2TOX_R_SQUARED 0.303, PBLUC_HILL_SLOPE 13, PBLUC_R_SQUARED 0.4, read-out: LUCIFERASE INFECTION ASSAY - IC50) of 1.92 µM and an IC90 of 2.27 µM.
`COc1ccccc1NC1=C(Cl)C(=O)c2ccccc2C1=O` gave an IC50 (FFLUC_HILL_SLOPE 2.43, FFLUC_R_SQUARED 0.19, HEPG2TOX_HILL_SLOPE 11.1, HEPG2TOX_R_SQUARED 0.994, PBLUC_HILL_SLOPE 1.56, PBLUC_R_SQUARED 0.76, read-out: LUCIFERASE INFECTION ASSAY - IC50) of 2 µM and an IC90 of 8.17 µM.
In the case of `Cc1ccc(Sc2ccc(NC(=S)NCC3CCCO3)cc2)c(C)c1` (stereo not given), the IC50 (PBLUC_HILL_SLOPE 9.48, PBLUC_R_SQUARED 0.239, read-out: LUCIFERASE INFECTION ASSAY - IC50) is reported as 8.41 µM and the IC90 is reported as > 10 µM.
Work on `CC(C)(C)c1ccccc1N1C(=O)C=CC1=O` yielded an IC50 (HEPG2TOX_HILL_SLOPE 10.3, HEPG2TOX_R_SQUARED 0.72, PBLUC_HILL_SLOPE 8.87, PBLUC_R_SQUARED 0.496, read-out: LUCIFERASE INFECTION ASSAY - IC50) of 5.14 µM and an IC90 of 6.59 µM.
In the case of `CC1CCN(S(=O)(=O)c2ccc(C(=O)NCc3cccc(C(F)(F)F)c3)cc2)CC1`, the IC50 (FFLUC_HILL_SLOPE 13.2, FFLUC_R_SQUARED 0.207, read-out: LUCIFERASE INFECTION ASSAY - IC50) is reported as > 10 µM and the IC90 is reported as > 10 µM.
`Cc1cc(C)c(C)c(S(=O)(=O)N2CCC(C(=O)Nc3nc(-c4ccc[nH]4)cs3)CC2)c1C` was tested, and the IC50 (FFLUC_HILL_SLOPE 22.1, FFLUC_R_SQUARED 0.531, read-out: LUCIFERASE INFECTION ASSAY - IC50) was > 10 µM and the IC90 was > 10 µM.
With `CS(=O)(=O)NC1CCN(c2nc(-c3ccccn3)nc3sc(-c4ccccc4)cc23)CC1` the IC50 (PBLUC_HILL_SLOPE 90.2, PBLUC_R_SQUARED 0.429, read-out: LUCIFERASE INFECTION ASSAY - IC50) was 3.34 µM and the IC90 was 3.42 µM.
`COc1ccccc1NS(=O)(=O)c1ccc2oc(Nc3ccc(Cl)c(C(F)(F)F)c3)nc2c1` was tested, and the IC50 [1] was > 10 µM and the IC90 was > 10 µM.
For `CC(=O)c1cccc(-c2cnc3ccc(-c4ccc(F)cc4)nn23)c1`, the IC50 (HEPG2TOX_HILL_SLOPE 2.73, HEPG2TOX_R_SQUARED 0.88, PBLUC_HILL_SLOPE 3.37, PBLUC_R_SQUARED 0.558, read-out: LUCIFERASE INFECTION ASSAY - IC50) was 2.32 µM and the IC90 was 4.45 µM.
`O=C(Nc1cc(Cl)sc1Cl)Oc1cccnc1` showed an IC50 (PBLUC_HILL_SLOPE 2.49, PBLUC_R_SQUARED 0.591, read-out: LUCIFERASE INFECTION ASSAY - IC50) of 4.41 µM and an IC90 of 10.6 µM.
`Cc1cc(SCC(=O)NNC(=O)c2ccc(NS(=O)(=O)c3cccs3)cc2)nc2ccccc12` was tested, and the IC50 [1] was > 10 µM and the IC90 was > 10 µM.
`O=C(NC1CC1)c1ccc(-c2cnn3c(NCc4ccc(F)cc4)ccnc23)cc1` was tested, and the IC50 (PBLUC_HILL_SLOPE 3.6, PBLUC_R_SQUARED 0.311, read-out: LUCIFERASE INFECTION ASSAY - IC50) was 4.82 µM and the IC90 was > 8.22 µM.
With `CCN(c1ccc(-c2csc(Nc3ccc4c(c3)OCCO4)n2)cc1)S(C)(=O)=O` the IC50 (FFLUC_HILL_SLOPE 1.56, FFLUC_R_SQUARED 0.608, HEPG2TOX_HILL_SLOPE 4.65, HEPG2TOX_R_SQUARED 0.413, PBLUC_HILL_SLOPE 3.4, PBLUC_R_SQUARED 0.614, read-out: LUCIFERASE INFECTION ASSAY - IC50) was 2.99 µM and the IC90 was 5.7 µM.
`CCCCN=C1NN=C(C23CC4CC(CC(C4)C2)C3)C(C)S1` (stereo not given) showed an IC50 (PBLUC_HILL_SLOPE 3.27, PBLUC_R_SQUARED 0.411, read-out: LUCIFERASE INFECTION ASSAY - IC50) of 4.56 µM and an IC90 of 8.93 µM.
`CCOC(=O)c1nc(N(CCc2ccccc2)C(=O)c2cccnc2SC)sc1C` was tested, and the IC50 [1] was > 10 µM and the IC90 was > 10 µM.
With `O=C(Nc1ccc(OC(F)(F)F)cc1)Nc1ccccc1SCC(O)Cn1ccc(C(F)(F)F)n1` (stereo not given) the IC50 (PBLUC_HILL_SLOPE 15.1, PBLUC_R_SQUARED 0.225, read-out: LUCIFERASE INFECTION ASSAY - IC50) was 5.88 µM and the IC90 was > 6.34 µM.
With `CC(C)(C)NC(=S)Nc1ccccc1N1CCCCC1` the IC50 (HEPG2TOX_HILL_SLOPE 2.33, HEPG2TOX_R_SQUARED 0.936, read-out: LUCIFERASE INFECTION ASSAY - IC50) was > 11.3 µM and the IC90 was > 11.3 µM.
With `CC(=O)c1cccc(-c2cc3c(cn2)nc(NCc2ccccc2F)n3C)c1` the IC50 (HEPG2TOX_HILL_SLOPE 11.4, HEPG2TOX_R_SQUARED 0.658, PBLUC_HILL_SLOPE 2.4, PBLUC_R_SQUARED 0.114, read-out: LUCIFERASE INFECTION ASSAY - IC50) was 6.65 µM and the IC90 was > 10 µM.
`Oc1ccc(-c2cnc3cnc(-c4ccc(Cl)cc4)cn23)cc1` showed an IC50 (HEPG2TOX_HILL_SLOPE 2.24, HEPG2TOX_R_SQUARED 0.991, PBLUC_HILL_SLOPE 6.34, PBLUC_R_SQUARED 0.684, read-out: LUCIFERASE INFECTION ASSAY - IC50) of 3.26 µM and an IC90 of 4.61 µM.
With `Nc1nc2c(c(C(F)(F)F)n1)CCc1ccccc1-2` the IC50 [1] was > 12.4 µM and the IC90 was > 12.4 µM.
`O=C1C(=O)N(Cc2ccc(F)cc2)c2c1cccc2C(F)(F)F` gave an IC50 (HEPG2TOX_HILL_SLOPE 12.5, HEPG2TOX_R_SQUARED 0.837, PBLUC_HILL_SLOPE 3.51, PBLUC_R_SQUARED 0.677, read-out: LUCIFERASE INFECTION ASSAY - IC50) of 3.68 µM and an IC90 of 6.88 µM.
`Cc1ccc(C(=O)OCC(=O)c2cc(C)n(-c3cccc(C(F)(F)F)c3)c2C)cc1NC(=O)c1ccco1` was tested, and the IC50 (FFLUC_HILL_SLOPE 14.7, FFLUC_R_SQUARED 0.458, read-out: LUCIFERASE INFECTION ASSAY - IC50) was > 10 µM and the IC90 was > 10 µM.
For `COc1ccc(N2C(=N)C(c3nc4ccccc4s3)C(=O)C2c2ccccc2)cc1` (stereo not given), the IC50 (PBLUC_HILL_SLOPE 428, PBLUC_R_SQUARED 0.387, read-out: LUCIFERASE INFECTION ASSAY - IC50) was 4.04 µM and the IC90 was 4.06 µM.
`CCN1CCN(c2ccc(NC(=O)c3csc(COc4ccc(F)cc4)n3)c(C)c2)CC1` was tested, and the IC50 (PBLUC_HILL_SLOPE 19.9, PBLUC_R_SQUARED 0.58, read-out: LUCIFERASE INFECTION ASSAY - IC50) was 3.97 µM and the IC90 was 4.43 µM.
In the case of `CC(O)c1ccc(-c2ccccc2NC(=O)c2ccccn2)s1` (stereo not given), the IC50 (HEPG2TOX_HILL_SLOPE 8.65, HEPG2TOX_R_SQUARED 0.867, read-out: LUCIFERASE INFECTION ASSAY - IC50) is reported as > 10 µM and the IC90 is reported as > 10 µM.
In the case of `Cc1oc2c(c1C(=O)N1CCC(C)CC1)C(=O)c1ccccc1C2=O`, the IC50 (HEPG2TOX_HILL_SLOPE 3.97, HEPG2TOX_R_SQUARED 0.955, PBLUC_HILL_SLOPE 1.55, PBLUC_R_SQUARED 0.65, read-out: LUCIFERASE INFECTION ASSAY - IC50) is reported as 2.73 µM and the IC90 is reported as > 10 µM.
For `CCn1c2ccccc2c2cc(/C=C3\SC(=S)N(CCCN(C)C)C3=O)ccc21`, the IC50 [1] was > 10 µM and the IC90 was > 10 µM.
In the case of `CCOC(=O)c1c(-c2ccc(Br)cc2)cn2c(=O)/c(=C3\C=CC=CN3C)sc12`, the IC50 (FFLUC_HILL_SLOPE 2.7, FFLUC_R_SQUARED 0.575, PBLUC_HILL_SLOPE 2.12, PBLUC_R_SQUARED 0.479, read-out: LUCIFERASE INFECTION ASSAY - IC50) is reported as 7.05 µM and the IC90 is reported as > 10 µM.
With `O=c1c(NNc2cccc(C(F)(F)F)c2)c(CSc2ccc(Cl)cc2)[nH]n1-c1ccccc1` the IC50 [1] was > 6.72 µM and the IC90 was > 6.72 µM.
For `CCC(NCC(O)COc1ccccc1C(C)C)C12CC3CC(CC(C3)C1)C2` (stereo not given), the IC50 [1] was > 10 µM and the IC90 was > 10 µM.
In the case of `CCOc1ccc(/C=N/NC(=O)c2cc3c(s2)CCCC3)c(O)c1`, the IC50 (HEPG2TOX_HILL_SLOPE 3.02, HEPG2TOX_R_SQUARED 0.79, PBLUC_HILL_SLOPE 4.8, PBLUC_R_SQUARED 0.349, read-out: LUCIFERASE INFECTION ASSAY - IC50) is reported as 6.97 µM and the IC90 is reported as > 10 µM.
In the case of `CCCCn1nc(C(=O)Nc2cc(S(=O)(=O)N(CC)CC)ccc2N2CCOCC2)c2ccccc2c1=O`, the IC50 [1] is reported as > 10 µM and the IC90 is reported as > 10 µM.
In the case of `Cc1ccc2c(c1)/C(=N\NC(=O)c1nc(Cl)c(Cl)c(N)c1Cl)C(=O)N2`, the IC50 (FFLUC_HILL_SLOPE 3.8, FFLUC_R_SQUARED 0.785, read-out: LUCIFERASE INFECTION ASSAY - IC50) is reported as > 10 µM and the IC90 is reported as > 10 µM.
In the case of `CC(C)c1ccc(-c2nnc(NC(=O)c3cn4ccccc4n3)s2)cc1`, the IC50 [1] is reported as 9.54 µM and the IC90 is reported as > 10 µM.
Compound `CCCCN(C)CC(O)Cn1c2ccc(Cl)cc2c2cc(Cl)ccc21` (stereo not given) has an IC50 (HEPG2TOX_HILL_SLOPE 6.86, HEPG2TOX_R_SQUARED 0.608, PBLUC_HILL_SLOPE 4.67, PBLUC_R_SQUARED 0.619, read-out: LUCIFERASE INFECTION ASSAY - IC50) of 4.05 µM and an IC90 of 6.48 µM.
In the case of `CCOCCCn1c(SCc2nc(-c3cccs3)oc2C)nc2sc(C)c(C)c2c1=O`, the IC50 [1] is reported as > 10 µM and the IC90 is reported as > 10 µM.
In the case of `Cc1cc(C)n(CC(=O)n2cc(C(=O)c3cc(F)ccc3O)cn2)n1`, the IC50 [1] is reported as > 10 µM and the IC90 is reported as > 10 µM.
In the case of `Cc1cc2oc(=O)cc(CN3CCN(S(=O)(=O)c4ccc([N+](=O)[O-])cc4)CC3)c2cc1Cl`, the IC50 [1] is reported as 4.19 µM and the IC90 is reported as 8.57 µM.
